For test [1], the target named is T1, TRα (Homo sapiens, UniProt P10827).
T1 construct: Then 5 μL of 4×TRα-LBD or TRP-LBD; purchased Invitrogen PV4687
The experiment in a line: In vitro binding activity, LanthaScreen TR-FRET Thyroid Receptor alfa Coactivator Assay. The note with it: TRα-LBD. On the procedure:
(§1) 2. Detection of TRα or TRβ Binding Activity In Vitro of the Compound of the Present Invention
(§2) • LanthaScreen TR-FRET Thyroid Receptor beta Coactivator Assay kit was purchased from Invitrogen, Cat. No. PV4686; • LanthaScreen TR-FRET Thyroid Receptor alfa Coactivator Assay kit was purchased from Invitrogen, Cat. No. PV4687. Test Method:
(§3) This method was tested using LanthaScreen TR-FRET Thyroid Receptor beta/alfa Coactivator Assay kit. The test compound was dissolved in DMSO and diluted three-fold to obtain a total of 10 concentrations, then the compounds were diluted into solutions containing 2% DMSO with TR-FRET Coregulator Buffer C in the kit. 10 μL of the compounds containing 2% DMSO were taken to a 384-well plate. Then 5 μL of 4×TRα-LBD or TRP-LBD and 5 μL of a mixture containing 0.4 μM fluorescein-SRC2-2 and 8 nM Tb anti-GST antibody were added to each well. After mixing well, the compounds were incubated at room temperature in the dark for 1 h. After 1 h, the fluorescence value (RFU) was read at 520 nm and 495 nm using PHERAstar FSX microplate reader from BMG LABTECH. The emission signal at 520 nm was divided by the emission signal at 495 nm to calculate the TR-FRET ratio.
For orientation: Time-resolved FRET reads energy transfer from a long-lived donor to a nearby acceptor.

Test [2] deals with T2, TRβ (Homo sapiens, UniProt P10828).
T2 construct: Then 5 μL of 4×TRα-LBD or TRP-LBD; purchased Invitrogen PV4686
T2 sequence (P10828 217-461 limits assumed): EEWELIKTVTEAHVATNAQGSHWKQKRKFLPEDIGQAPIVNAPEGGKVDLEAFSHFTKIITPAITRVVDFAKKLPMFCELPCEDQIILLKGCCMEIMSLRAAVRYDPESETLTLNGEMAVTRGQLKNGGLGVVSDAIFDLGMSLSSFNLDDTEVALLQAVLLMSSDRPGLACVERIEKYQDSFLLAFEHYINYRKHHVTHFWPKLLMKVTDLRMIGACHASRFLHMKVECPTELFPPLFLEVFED
The experiment in a line: In vitro binding activity, LanthaScreen TR-FRET Thyroid Receptor beta Coactivator Assay. The note with it: TRβ-LBD. How it is done:
as §1, §2, §3

Each structure is given as a SMILES string.

T1 sequence (P10827 163-410 isoform P10827-2 limits assumed, other chains not shown): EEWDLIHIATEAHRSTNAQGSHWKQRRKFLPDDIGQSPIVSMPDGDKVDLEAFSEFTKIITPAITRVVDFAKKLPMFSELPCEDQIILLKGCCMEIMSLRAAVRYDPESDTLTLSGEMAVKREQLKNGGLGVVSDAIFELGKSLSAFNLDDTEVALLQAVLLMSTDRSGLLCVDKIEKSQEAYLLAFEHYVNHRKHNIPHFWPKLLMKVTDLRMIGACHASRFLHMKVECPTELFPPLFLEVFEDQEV

A word on the EC50: it is the midpoint of the concentration-response curve. A high value points to a need for much substance. In the case of `N#Cc1nn(-c2cc(Cl)c(Oc3ccc(=O)n(-c4ccc(F)cc4)n3)c(Cl)c2)c(=O)[nH]c1=O` [Example 8, 2-[3,5-dichloro-4-[1-(4-fluorophenyl)-6-oxo-1,6-dihydropyridazin-3-yl]oxy-phenyl]-3,5-dioxo-1,2,4-triazine-6-carbonitrile], the EC50 is > 100000 nM in test [1] and > 10000 nM in test [2].
In the case of `COc1ccc(Cn2cc(Oc3c(Cl)cc(-n4nc(C#N)c(=O)[nH]c4=O)cc3Cl)ccc2=O)cc1` [Example 31, 2-(3,5-dichloro-4-((1-(4-methoxybenzyl)-6-oxo-1,6-dihydropyridin-3-yl)oxy)phenyl)-3,5-dioxo-2,3,4,5-tetrahydro-1,2,4-triazine-6-carbonitrile], the EC50 in test [1] was determined as 4400 nM; in test [2] it was 94 nM.
On the same counts, the results for `Cc1ccc(Cn2cc(Oc3c(Cl)cc(-n4nc(C#N)c(=O)[nH]c4=O)cc3Cl)ccc2=O)cc1` [Example 23, 2-[3,5-dichloro-4-[[1-(4-methylbenzyl)-6-oxo-1,6-dihydropyridin-3-yl]oxy]phenyl]-3,5-dioxo-1,2,4-triazine-6-carbonitrile] are 3000 nM and 60 nM.
On the same counts, the results for `Cc1cc(Oc2c(Cl)cc(-n3nc(C#N)c(=O)[nH]c3=O)cc2Cl)cn(Cc2ccccc2)c1=O` [Example 37, 2-(4-((1-benzyl-5-methyl-6-oxo-1,6-dihydropyridin-3-yl)oxy)-3,5-dichlorophenyl)-3,5-dioxo-2,3,4,5-tetrahydro-1,2,4-triazine-6-carbonitrile] are > 100000 nM and 245 nM.
On the same counts, the results for `N#Cc1nn(-c2cc(Cl)c(Oc3ccc(=O)n(Cc4ccccc4)n3)c(Cl)c2)c(=O)[nH]c1=O` [Example 2, 2-[4-(1-benzyl-6-oxo-1,6-dihydropyridazin-3-yl)oxy-3,5-dichlorophenyl]-3,5-dioxo-1,2,4-triazine-6-carbonitrile] are > 100000 nM and > 10000 nM.
On to `O=c1[nH]c(=O)n(-c2cc(Cl)c(Oc3ccc(=O)n(Cc4ccccc4)c3)c(Cl)c2)nc1CO` [Example 33, 2-(4-((1-benzyl-6-oxo-1,6-dihydropyridin-3-yl)oxy)-3,5-dichlorophenyl)-6-(hydroxymethyl)-1,2,4-triazine-3,5(2H,4H)-dione], for which the values for the half-maximal effective concentration (EC50) in test [1] and in test [2] were 3230 nM and 231 nM, respectively.
As to `CCOC(=O)Cn1cc(Oc2c(Cl)cc(-n3nc(C#N)c(=O)[nH]c3=O)cc2Cl)ccc1=O` [Example 17, Ethyl 2-[5-[2,6-dichloro-4-(6-cyano-3,5-dioxo-1,2,4-triazin-2-yl)phenoxy]-2-oxy-pyridine-1(2H)-yl] acetate], the figures for the EC50 in test [1] and in test [2] were 15400 nM and 350 nM, respectively.
On the same counts, the results for `N#Cc1nn(-c2cc(Cl)c(Oc3cnc(=O)n(Cc4ccc(F)cc4)c3)c(Cl)c2)c(=O)[nH]c1=O` [Example 20, 2-[3,5-dichloro-4-[1-(4-fluorobenzyl)-2-oxo-1,2-dihydropyrimidin-5-yl]oxy-phenyl]-3,5-dioxo-1,2,4-triazine-6-carbonitrile] are > 100000 nM and 7370 nM.
In the case of `O=c1cnn(-c2cc(Cl)c(Oc3ccc(=O)n(Cc4ccc(F)cc4)c3)c(Cl)c2)c(=O)[nH]1` [Example 36, 2-(3,5-dichloro-4-((1-(4-fluorobenzyl)-6-oxo-1,6-dihydropyridin-3-yl)oxy)phenyl)-1,2,4-triazine-3,5(2H,4H)-dione], the figures for the EC50 in test [1] and in test [2] were 92 nM and < 4.6 nM, respectively.
On the same counts, the results for `CC(C)n1cc(Oc2c(Cl)cc(-n3nc(C#N)c(=O)[nH]c3=O)cc2Cl)ccc1=O` [Example 4, 2-[3,5-dichloro-4-[(1-isopropyl-6-oxo-1,6-dihydropyridin-3-yl)oxy]phenyl]-3,5-dioxo-1,2,4-triazine-6-carbonitrile] are > 100000 nM and 500 nM.
For `N#Cc1nn(-c2cc(Cl)c(Oc3ccc(=O)n(CC4CCOCC4)c3)c(Cl)c2)c(=O)[nH]c1=O` [Example 25, 2-[3,5-dichloro-4-[[6-oxo-1-((tetrahydropyran-4-yl)methyl)-1,6-dihydropyridin-3-yl]oxy]phenyl]-3,5-dioxo-1,2,4-triazine-6-carbonitrile], the EC50 was 6660 nM in test [1] and 140 nM in test [2].
Turning to `N#Cc1nn(-c2cc(Cl)c(Oc3ccc(=O)n(Cc4ccccc4)c3)c(Cl)c2)c(=O)[nH]c1=O` [Example 1, 2-[4-[(1-benzyl-6-oxo-1,6-dihydropyridin-3-yl)oxy]-3,5-dichlorophenyl]-3,5-dioxo-1,2,4-triazine-6-carbonitrile], the 50% effective concentration (EC50) was 3030 nM in test [1] and 60 nM in test [2].
Turning to `N#Cc1nn(-c2cc(Cl)c(Oc3cc(Cl)c(=O)n(Cc4ccccc4)c3)c(Cl)c2)c(=O)[nH]c1=O` [Example 38, 2-(4-((1-benzyl-5-chloro-6-oxo-1,6-dihydropyridin-3-yl)oxy)-3,5-dichlorophenyl)-3,5-dioxo-2,3,4,5-tetrahydro-1,2,4-triazine-6-carbonitrile], the EC50 in test [1] is > 33300 nM; in test [2], 382 nM.
Regarding `CC(c1ccccc1)n1nc(Oc2c(Cl)cc(-n3nc(C#N)c(=O)[nH]c3=O)cc2Cl)ccc1=O` (centres unmarked) [Example 9, 2-[3,5-dichloro-4-[[6-oxo-1-(1-phenethyl)-1,6-dihydropyridazin-3-yl]oxyl]phenyl]-3,5-dioxo-1,2,4-triazine-6-carbonitrile], the EC50 in test [1] was > 100000 nM; in test [2], > 10000 nM.
Regarding `N#Cc1nn(-c2cc(Br)c(Oc3ccc(=O)n(Cc4ccccc4)c3)c(Br)c2)c(=O)[nH]c1=O` [Example 35, 2-(4-((1-benzyl-6-oxo-1,6-dihydropyridin-3-yl)oxy)-3,5-dibromophenyl)-3,5-dioxo-2,3,4,5-tetrahydro-1,2,4-triazine-6-carbonitrile], the EC50 came to 473 nM in test [1] and 17 nM in test [2].
As for `N#Cc1nn(-c2cc(Cl)c(Oc3ccc(=O)n(Cc4ccc(OC(F)(F)F)cc4)c3)c(Cl)c2)c(=O)[nH]c1=O` [Example 12, 2-[3,5-dichloro-4[[6-oxo-1-[4-(trifluoromethoxy)benzyl]-1,6-dihydropyridin-3-yl]oxy]phenyl]-3,5-dioxo-1,2,4-triazine-6-carbonitrile], the 50% effective concentration (EC50) in test [1] is > 100000 nM; in test [2], 1340 nM.
For `N#Cc1nn(-c2cc(Cl)c(Oc3cnc(=O)n(Cc4ccccc4)c3)c(Cl)c2)c(=O)[nH]c1=O` [Example 10, 2-[4-(1-benzyl-2-oxo-1,2-dihydropyrimidin-5-yl)oxy-3,5-dichlorophenyl]-3,5-dioxo-1,2,4-triazine-6-carbonitrile], the EC50 in test [1] was > 100000 nM; in test [2], > 10000 nM.
On to `N#Cc1nn(-c2cc(Cl)c(Oc3ccc(=O)n(Cc4cccc(C(F)(F)F)c4)c3)c(Cl)c2)c(=O)[nH]c1=O` [Example 14, 2-[3,5-dichloro-4-[[6-oxo-1-[3-(trifluoromethyl)benzyl]-1,6-dihydropyridin-3-yl]oxy]phenyl]-3,5-dioxo-1,2,4-triazine-6-carbonitrile], for which the EC50 in test [1] worked out at 5740 nM; in test [2] it was 350 nM.
On the same counts, the results for `CCOC(=O)C(C)n1cc(Oc2c(Cl)cc(-n3nc(C#N)c(=O)[nH]c3=O)cc2Cl)ccc1=O` (centres unmarked) [Example 24, Ethyl 2-(5-(2,6-dichloro-4-(6-cyano-3,5-dioxo-1,2,4-triazin-2-yl)phenoxy)-2-oxypyridine-1(2H)-yl)propionate] are 570 nM and 20 nM.

Values taken from US12617769B2, “Chemical compound as thyroid hormone beta receptor agonist and use thereof” (SUNSHINE LAKE PHARMA CO., LTD., priority 2019, dated 2026).
